{"source": "patent US20090148430A1", "about": "“HUMAN OBESITY SUSCEPTIBILTY GENE ENCODING POTASSIUM ION CHANNELS AND USES THEREOF” (priority 2004, published 2009)", "origin": "cited, not measured here", "key": {"[1]": {"tested_on": "pig Kv1.5", "settings": "expressed in Xenopus oocytes; read-out: IC(50) block of pig Kv1.5"}, "[2]": {"tested_on": "guinea-pig ileum"}, "[3]": {"biological_target": "T1, cloned rat brain potassium channel Kv1.1 (Rattus norvegicus, UniProt P10499)", "T1 construct": "host or cells: Xenopus laevis oocytes", "T1 sequence (P10499 whole entry)": "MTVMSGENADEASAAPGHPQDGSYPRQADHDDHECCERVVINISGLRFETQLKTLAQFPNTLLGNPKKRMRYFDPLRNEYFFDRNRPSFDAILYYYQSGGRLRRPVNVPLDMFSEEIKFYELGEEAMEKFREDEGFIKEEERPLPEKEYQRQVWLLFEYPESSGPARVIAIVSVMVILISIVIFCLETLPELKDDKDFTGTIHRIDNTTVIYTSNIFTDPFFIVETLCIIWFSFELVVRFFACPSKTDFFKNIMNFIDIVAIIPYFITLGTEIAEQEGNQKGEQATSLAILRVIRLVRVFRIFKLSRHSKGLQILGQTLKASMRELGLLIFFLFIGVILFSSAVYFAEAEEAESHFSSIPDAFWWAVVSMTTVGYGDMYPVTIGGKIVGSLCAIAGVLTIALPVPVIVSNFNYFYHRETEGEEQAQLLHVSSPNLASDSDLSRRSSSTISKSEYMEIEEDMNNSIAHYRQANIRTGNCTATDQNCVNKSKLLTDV", "settings": "Kv1.1, Xenopus laevis oocytes"}, "[4]": {"settings": "intranasal, healthy controls"}, "[5]": {"tested_on": "rats"}, "[6]": {"tested_on": "Kv channel", "settings": "extracellular application, MASMC and intestinal epithelial cells, rats"}, "[7]": {"tested_on": "Kv channel", "settings": "vascular smooth muscle cells"}, "[8]": {"tested_on": "KV currents including Kv1.1", "settings": "mammalian neurons, therapeutic levels"}, "[9]": {"biological_target": "Kv1.5 (Rattus norvegicus, UniProt P19024)", "sequence (P19024 whole entry)": "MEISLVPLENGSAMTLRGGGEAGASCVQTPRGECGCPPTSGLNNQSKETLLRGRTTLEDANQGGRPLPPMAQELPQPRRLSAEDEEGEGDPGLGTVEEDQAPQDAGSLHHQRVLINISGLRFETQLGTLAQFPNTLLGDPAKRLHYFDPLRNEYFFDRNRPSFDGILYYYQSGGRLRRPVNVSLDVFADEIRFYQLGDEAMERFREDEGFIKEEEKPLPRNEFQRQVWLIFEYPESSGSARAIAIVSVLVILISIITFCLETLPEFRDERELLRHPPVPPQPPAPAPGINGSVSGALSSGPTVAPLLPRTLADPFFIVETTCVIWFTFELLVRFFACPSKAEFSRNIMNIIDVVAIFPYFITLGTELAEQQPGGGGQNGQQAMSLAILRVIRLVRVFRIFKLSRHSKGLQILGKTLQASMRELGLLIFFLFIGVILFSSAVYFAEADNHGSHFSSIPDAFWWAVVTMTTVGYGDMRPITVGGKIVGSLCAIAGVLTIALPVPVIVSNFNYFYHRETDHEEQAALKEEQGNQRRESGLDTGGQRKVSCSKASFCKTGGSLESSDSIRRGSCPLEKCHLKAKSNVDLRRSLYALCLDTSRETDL", "settings": "independent of effects on PTK activity"}, "[10]": {"settings": "massively obese child with leptin deficiency mutation"}}, "data": [{"compound": "COc1ccc(CC(=O)NCc2ccccc2-c2ccccc2C(=O)NCCc2cccnc2)cc1", "note": "[AVE0118]", "values": [{"measurement": "IC50", "setting": "[1]", "result": 5.4, "unit": "µM"}]}, {"compound": "margatoxin (TIINVKCTSPKQCLPPCKAQFGQSAGAKCMNGKCKCYPH; UniProt P40755 1-39, looked up)", "values": [{"measurement": "peristaltic activity", "setting": "[2]", "result": "increases the peristaltic activity"}, {"measurement": "pressure threshold for eliciting peristaltic contractions", "setting": "[2]", "result": "immediate reduction"}]}, {"compound": "C1CCc2nnnn2CC1", "note": "[PTZ, pentylenetetrazol]", "values": [{"measurement": "effect on potassium currents at more negative potentials", "setting": "[3]; more negative potentials", "result": "increased the potassium currents"}, {"measurement": "effect on potassium currents at more positive potentials", "setting": "[3]; more positive potentials", "result": "decreased them"}]}, {"compound": "ACTH4-10: adrenocorticotropin4-10, representing a core sequence of all melanocortins (MEHFRWG; Corticotropin; UniProt P01189 141-147, looked up, fragment)", "values": [{"measurement": "body fat mass", "setting": "[4]", "result": "reduced"}, {"measurement": "plasma leptin concentrations", "setting": "[4]", "result": "reduced"}, {"measurement": "weight", "setting": "[4]", "result": "reduced"}]}, {"compound": "C=C1C[C@@]2(O)[C@@H]3CC[C@@]4(C)[C@@H]5C=CC(=O)OC[C@]5(C(C)OC(C)=O)[C@@H](OC(C)=O)[C@@H](OC(C)=O)[C@@H]4[C@@]3(C)[C@H](OC(C)=O)[C@H](OC(C)=O)[C@@]2(C)C2(C(=O)OC)O[C@H]12", "note": "(some centres unmarked) [correolide]", "values": [{"measurement": "pressure threshold for eliciting peristaltic contractions", "setting": "[2]", "result": "progressive and sustained reduction"}]}, {"compound": "Kaliotoxin: a Kv1.1 and Kv1.3 channel blocker", "values": [{"measurement": "associative learning", "setting": "[5]", "result": "improves associative learning"}]}, {"compound": "Nc1ccncc1", "note": "[4-aminopyridine]", "values": [{"measurement": "effect of K+ channel blockade", "setting": "[6]", "result": "anorexic effect"}]}, {"compound": "CCN[C@@H](C)Cc1cccc(C(F)(F)F)c1", "note": "[dexenfluramine]", "values": [{"measurement": "Kv channel activity", "setting": "[7]", "result": "decrease Kv channel activity"}]}, {"compound": "alpha-dendrotoxin", "values": [{"measurement": "peristaltic activity", "setting": "[2]", "result": "increases the peristaltic activity"}, {"measurement": "pressure threshold for eliciting peristaltic contractions", "setting": "[2]", "result": "immediate reduction"}]}, {"compound": "dendrotoxin-K", "values": [{"measurement": "peristaltic activity", "setting": "[2]", "result": "increases the peristaltic activity"}, {"measurement": "pressure threshold for eliciting peristaltic contractions", "setting": "[2]", "result": "immediate reduction"}]}, {"compound": "CCNC(C)Cc1cccc(C(F)(F)F)c1", "note": "(centres unmarked) [fenfluramine]", "values": [{"measurement": "Kv channel activity", "setting": "[7]", "result": "decrease Kv channel activity"}]}, {"compound": "CNCCC(Oc1ccc(C(F)(F)F)cc1)c1ccccc1", "note": "(centres unmarked) [fluoxetine]", "values": [{"measurement": "block of KV currents including Kv1.1", "setting": "[8]", "result": "can occur at therapeutic levels"}]}, {"compound": "COc1cc2ncnc(Nc3cccc(Cl)c3)c2cc1OC", "note": "[AG-1478]", "values": [{"measurement": "action on Kv1.5 currents", "setting": "[9]", "result": "open-channel blocker"}]}, {"compound": "recombinant leptin: recombinant leptin used to treat a child with a leptin deficiency mutation", "values": [{"measurement": "treatment outcome", "setting": "[10]", "result": "treated successfully"}]}]}
